Experimental data taken from patent publication US7737158B2, “Processes for regulating blood glucose in a mammal” (Washington University, priority 2005, dated 2010).
“Also recorded” adds a separate entry of the source.

Legend:
[1] = test system: mouse mammary carcinoma model; details: eight intraperitoneal injections, 25 mg/kg per injection, 12-hour interval; Muruganandham et al. 2005; cited from earlier work
NIH3T3 cells = assay: Total cellular NAD levels in NIH3T3 cells by HPLC; type: cell-based, mouse; details: addition of 5 mM nicotinamide to the medium (otherwise 33 μM)
Description: Total cellular levels of NAD was measured in the NIH3T3 cell lines overexpressing the untagged enzymes. High performance liquid chromatography was used to measure NAD (Neubert et al., Biochim. Biophys. Acta., (1964) 92, 610-612; Emanuelli et al., J. Chromatogr., (1996) B. 676, 13-18). Briefly, 5×10^5 cells were plated in 6 cm dishes and harvested 48 h later in 800 μl of ice-cold PBS. Cells were then spun down and lysed with 300 μl of 1M HClO4 on ice for 10 min. Lysates were cleared by centrifugating at 4° C. at 18,000 g for 5 minutes. Cleared lysates (240 μl) were neutralized by adding 80 μl of 3M K2CO3 and incubating on ice for 10 minutes. After centrifuging for 10 min, 100 μl of the supernatant were mixed with 400 μl of Buffer A and loaded onto the column. The HPLC was run at a flow rate of 1 ml/min with 100% Buffer A from 0 to 5 min, a linear gradient to 95% Buffer A and 5% Buffer B (100% methanol) from 5 to 6 min, 95% Buffer A and 5% Buffer B from 6 to 11 min, a linear gradient to 85% Buffer A and 15% Buffer B from 11 to 13 min, 85% Buffer A and 15% Buffer B from 13 to 23 min, and a linear gradient to 100% Buffer A from 23 to 24 min. NAD was eluted as a sharp peak at 22 min. The amount of NAD was quantitated based on the peak area compared to a standard curve.

C57BL/6 mice = assay: Blood glucose levels after intraperitoneal injection in fasted C57BL/6 mice; type: in vivo, mouse; details: for effect on blood glucose levels at lower dose: 50 mg/kg intraperitoneal, compared with 500 mg/kg; for blood glucose levels: 4-hr fast, 0-120 min after injection
Description: In this Example, five adult mice (C57BL/6; male; 3-4 months of age) were subjected to a 4-hr fast followed by intraperitoneal injection (500 mg/kg; 50 mg/kg) of nicotinamide, nicotinamide mononucleotide (NMN), or nicotinamide adenine dinucleotide (NAD). A control group of five fasted mice ([…]) were injected with PBS.
Blood glucose levels were measured from tail vein blood samples with an Accu-Chek glucometer (Roche Diagnostics) at 0, 15, 30, 60 and 120 min after injection.

HIB-1B adipocytes = assay: Secretion assay with brefeldin A in differentiated HIB-1B adipocytes (Western blot); type: cell-based, mouse; details: BFA 0.5 ug/ml, 12 hours, differentiated HIB-1B adipocytes (day 8)
Description: HIB-1B cells expressing Nampt-FLAG, Dhfr-FLAG, and Ppl-FLAG were differentiated to mature adipocytes (day 8) in 10-cm dishes, and their cell extracts were collected and immunoprecipitated as described above. Culture supernatant (˜8 ml) were collected and immunoprecipitated overnight at 4° C. with anti-FLAG antibody-conjugated beads, washed twice with PBS, and analyzed by Western Blot with rabbit polyclonal anti-FLAG antibody (Sigma, MO).
Brefeldin A (BFA), a potent inhibitor of the classical secretory pathway, was added to examine if Nampt-FLAG® is secreted through the ER-Golgi system. Fully differentiated HIB-1B adipocytes (day 8) were treated with BFA (0.5 ug/ml, Sigma, MO) for 12 hours, and cell extracts and culture supernatants were collected and analyzed as described above.

[2] = test system: Chinese hamster ovary (CHO) cells; assay: Secretion assay with brefeldin A in transfected CHO cells (Western blot); type: cell-based; details: BFA-treated transfected CHO cells
Description: Cell extracts and culture supernatants were collected 48 hours after transfection, and subjected to immunoprecipitation with anti-FLAG® antibody-conjugated beads as described above, and analyzed by Western Blot with rabbit polyclonal anti-FLAG® antibody (Sigma, MO). Cells were also treated with BFA as described above.

Nampt^+/− mice = assay: Intraperitoneal glucose tolerance test (IPGTT) after NMN administration in Nampt+/- mice; type: in vivo, mouse
Description: Intraperitoneal glucose tolerance tests (IPGTTs) were conducted with a does of 3 g dextrose/kg body weight on Nampt^+/− and Nampt^+/+ siblings. For the IPGTTs, after mice were injected with PBS or NMN (500 mg/kg body weight) and fasted for 12-14 hours, dextrose (3 g/kg body weight) was injected intraperitoneally, and blood glucose levels were measured at 0, 15, 30, 60, and 120 min after injection. Plasma was also collected at 0 and 30 min time points after glucose injection and submitted for insulin measurements to the Washington University RIA Core facility. For the ITTs, after female mice were fasted for 4 hours, human insulin (0.75 U/kg body weight) (Lilly) was injected intraperitoneally to these mice, and blood glucose levels were measured at 0, 15, 30, 45, and 60min after insulin injection.
If the NAD biosynthetic activity of Nampt is responsible for the phenotypes observed in Nampt^+/− mice, the administration of NMN, a product of the Nampt enzymatic reaction, should be able to correct their problems. To test this possibility, the same Nampt^+/− mice that were used for IPGTTs were injected with NMN at a dose of 500 mg/kg body weight intraperitoneally ˜14 hrs prior to IPGTTs. As a control, PBS was injected to the mice ˜14 hrs before conducting previous IPGTTs. […] Blood glucose levels were monitored with a glucometer at 0, 30, and 60 min time points after injection.

B6 mice = assay: Toxicity of NMN dose in B6 mice; type: in vivo, mouse; details: NMN 500 mg/kg body weight
Excerpt: Therefore, it will be of great interest to examine whether NMN administration also alleviates the effects of Nampt haplodeficiency in HFD-fed Nampt^+/− mice and even improves the symptoms in HFD-fed Nampt^+/+ mice. […] NMN administration causes an acute increase in blood glucose within 2 hrs, probably due to the rapid release of calcium and eicosanoid in the liver (Broetto-Biazon et al., Eur. J. Pharmacol., (2004) 484, 291-301). Therefore, physiological tests will be conducted ˜14 hrs after NMN injection, as described in Example 18.

## O=C(/C=C/c1cccnc1)NCCCCC1CCN(C(=O)c2ccccc2)CC1 [FK866]
[1]
  inhibition of NAD biosynthesis in vivo: effective to inhibit NAD biosynthesis
  toxicity: without any obvious toxicity

## NC(=O)c1cccnc1 [nicotinamide, 3-pyridinecarboxamide]
NIH3T3 cells
  total cellular NAD level: did not increase NAD
C57BL/6 mice
  effect on blood glucose levels at lower dose: weaker
C57BL/6 mice; 500 mg/kg intraperitoneal
  blood glucose levels: significantly increased

## NC(=O)c1ccc[n+]([C@@H]2O[C@H](COP(=O)([O-])OP(=O)(O)OC[C@H]3O[C@@H](n4cnc5c(N)ncnc54)[C@H](O)[C@@H]3O)[C@@H](O)[C@H]2O)c1 [NAD, Nicotinamide adenine dinucleotide]
C57BL/6 mice
  effect on blood glucose levels at lower dose: weaker
C57BL/6 mice; 500 mg/kg intraperitoneal
  blood glucose levels: significantly increased
C57BL/6 mice; 500 mg/kg intraperitoneal, comparison between compounds
  kinetics of glucose increase: much more pronounced and long-lasting effect

## C[C@H]1CCC/C=C/[C@@H]2C[C@H](O)C[C@H]2[C@H](O)/C=C/C(=O)O1 [BFA, Brefeldin A]
HIB-1B adipocytes
  eNampt levels in supernatant (extracellular Nampt secretion): not affected; also recorded: not inhibited
  secretion of Prl-FLAG: significantly inhibited
HIB-1B adipocytes; listed as brefeldin A
  secretion of Prl-FLAG: inhibited
[2]
  secretion of Prl-FLAG: significantly inhibited
  secretion of extracellular Nampt: unaffected

## NC(=O)c1ccc[n+]([C@@H]2O[C@H](COP(=O)([O-])O)[C@@H](O)[C@H]2O)c1 [NMN, Nicotinamide mononucleotide]
C57BL/6 mice
  effect on blood glucose levels at lower dose: weaker
C57BL/6 mice; 500 mg/kg intraperitoneal
  blood glucose levels: significantly increased
C57BL/6 mice; NMN administration
  time within which the acute increase in blood glucose occurs after administration: ≤ 2 h
Nampt^+/− mice; NMN 500 mg/kg intraperitoneally ~14 hrs prior to IPGTT, Nampt+/- mice compared to Nampt+/+
  glucose tolerance in IPGTT: no longer showed impaired glucose tolerance; also recorded: corrected impaired glucose tolerance; also recorded: can correct
Nampt^+/− mice; NMN 500 mg/kg intraperitoneally ~14 hrs prior, 30 min after glucose injection, Nampt+/- mice
  glucose-stimulated insulin secretion (plasma insulin) in IPGTT: robust insulin secretion similar to that in Nampt^+/+ mice; also recorded: corrected
B6 mice
  toxicity: not cause any obvious toxicity
